Reference: ChEMBL document CHEMBL1159320, “Cytotoxic effect (on tumor cells) and in vitro antiviral activity against herpes simplex virus of synthetic spongiane diterpenes” (J Nat Prod, 2002)
Values after ≈ are worked out from the molar mass of the structure shown. Active and inactive are the calls of the source. No cut-off for these calls is given here.

Experiments:
[1] = system: HeLa; assay: Cytotoxicity against human HeLa cells after 48 hrs by MTT assay; format: functional
[2] = Cytotoxicity against bovine Bon-Fib cells after 48 hrs by MTT assay; format: cell-based, Bos taurus; settings: cattle
[3] = system: HEp-2; assay: Cytotoxicity against human Hep2 cells after 48 hrs by MTT assay; format: functional; settings: HEp-2, 48 h
[4] = Cytotoxicity against bovine Bon-Fib cells after 48 hrs; format: cell-based, Bos taurus; settings: cattle
[5] = system: CHO; assay: Cytotoxicity against CHO cells after 48 hrs; format: cell-based, Cricetulus griseus; settings: chinese hamster
[6] = system: HeLa; assay: Cytotoxicity against human HeLa cells after 48 hrs; format: functional
[7] = Cytotoxicity against CHO cells after 48 hrs by MTT assay; format: cell-based, Cricetulus griseus; settings: chinese hamster
[8] = system: Vero; assay: Cytotoxicity against african green monkey Vero cells by EPTT method; format: cell-based; settings: chlorocebus sabaeus
[9] = system: Human alphaherpesvirus 2; assay: Antiviral activity against HSV2 infected in human HeP2 ells; format: functional
[10] = system: P388; assay: Antitumor activity against mouse P388 cells; format: functional, cell-based
[11] = system: Human alphaherpesvirus 1; assay: Antiviral activity against HSV1 infected in mouse P388 cells; format: functional, organism-based; settings: Human alphaherpesvirus 1, P388
[12] = Cytotoxicity against pig PS cells; format: cell-based, Sus scrofa; settings: read-out: ED50 (the source's name)
[13] = system: HEp-2; assay: Cytotoxicity against human Hep2 cells after 48 hrs; format: functional
[14] = system: KB; assay: Cytotoxicity against human KB cells; format: functional, cell-based
[15] = system: L1210; assay: Cytotoxicity against mouse L1210 cells; format: functional, cell-based

| Compound | CC50 [1] | CC50 at 48 h [2] | CC50 [3] | CC100 [4] | CC100 [5] | CC50 at 48 h [7] | CC100 [8] | Activity [9] | also measured |
| --- | --- | --- | --- | --- | --- | --- | --- | --- | --- |
| CC(=O)OC[C@@H]1[C@H]2CC[C@@H]3[C@@]4(C)CCCC(C)(C)[C@@H]4CC[C@@]13COC2=O | 16.5 µg/mL (≈ 45.5 µM) | 15.9 µg/mL (≈ 43.8 µM) | 10.1 µg/mL (≈ 27.7 µM) | 36 µg/mL | 36 µg/mL | 21.5 µg/mL (≈ 59.4 µM) | 28 µg/mL | 14 µg/mL | CC100 [6]: 18 µg/mL |
| CC[C@]1(O)C[C@H]2CN(CCc3c([nH]c4ccccc34)[C@@](C(=O)OC)(c3cc4c(cc3OC)N(C=O)[C@H]3[C@@](O)(C(=O)OC)[C@H](OC(C)=O)[C@]5(CC)C=CCN6CC[C@]43[C@@H]65)C2)C1 [VINCRISTINE] | 0.05 µg/mL (≈ 0.0606 µM) | 0.61 µg/mL (≈ 0.739 µM) | 0.05 µg/mL (≈ 0.0606 µM) |  |  | 1.15 µg/mL (≈ 1.39 µM) |  |  |  |
| Nc1nc2c(ncn2COCCO)c(=O)[nH]1 [ACYCLOVIR] |  |  |  |  |  |  | > 600 µg/mL | 6 µg/mL |  |
| COC(=O)[C@@H]1CC[C@@H]2[C@@]3(C)CCCC(C)(C)[C@@H]3CC[C@]23C(O)OC[C@H]13 (stereo partly drawn) | 37.6 µg/mL (≈ 107 µM) | > 120 µg/mL | 21.8 µg/mL (≈ 62.3 µM) | > 120 µg/mL | 30 µg/mL | 24.5 µg/mL (≈ 69.9 µM) | 30 µg/mL | inactive | CC100 [6]: 60 µg/mL |
| C[C@]12CC(=O)[C@H](O)[C@](C)(CO)[C@@H]1CC[C@@]1(C)c3cocc3CC[C@H]21 [EPISPONGIADIOL] |  |  |  |  |  |  |  |  | IC50 [10]: 8 µg/mL (≈ 24.1 µM); IC50 [11]: 12.5 µg/mL (≈ 37.6 µM) |
| CCCC(=O)O[C@@H]1C[C@H]2C(C)(C)CCC[C@]2(C)[C@H]2CC[C@H]3C(=O)O[C@H]4O[C@@H](O)[C@]21[C@H]43 |  |  |  |  |  |  |  |  | CC50 [12]: 6.5 µg/mL (≈ 15.5 µM) |
| CC1(C)CCC[C@]2(C)[C@H]3CC[C@H]4C(=O)OC[C@]3(CC[C@@H]12)[C@@H]4CO |  |  |  |  |  |  | 37.5 µg/mL | 18.7 µg/mL |  |
| CC1(C)CCC[C@]2(C)[C@H]3CC[C@H]4C(=O)OC[C@H]4[C@]3(C=O)CC[C@@H]12 | 14.2 µg/mL (≈ 44.5 µM) | 19 µg/mL (≈ 59.6 µM) | 9.56 µg/mL (≈ 30 µM) | 40 µg/mL | 20 µg/mL | 13.2 µg/mL (≈ 41.3 µM) | 28 µg/mL | 14 µg/mL |  |
| CC1(C)CCC[C@]2(C)[C@H]3CC=C4C(=O)OC[C@H]4[C@]3(C)CC[C@@H]12 [ISOAGATHOLACTONE] |  |  |  |  |  |  | 40 µg/mL | inactive |  |
| CC1(C)CCC[C@]2(C)[C@H]3CC[C@H]4C(=O)OC5OC[C@H]4[C@@]53CC[C@@H]12 |  |  |  |  |  |  | 58 µg/mL | 29 µg/mL |  |
| CC1(C)CCC[C@]2(C)[C@H]3CC[C@@]4(O)C(=O)OC[C@H]4[C@]3(C)CC[C@@H]12 |  |  |  |  |  |  | 50 µg/mL | 25 µg/mL |  |
| CC(=O)O[C@@H]1OC2OC(=O)[C@@H]3CC[C@@H]4[C@@]5(C)CCCC(C)(C)[C@@H]5CC[C@]14[C@H]23 (stereo partly drawn) |  |  |  |  |  |  | > 120 µg/mL | 120 µg/mL |  |
| CC(=O)O[C@H]1OC(=O)[C@@H]2CC[C@@H]3[C@@]4(C)CCCC(C)(C)[C@@H]4CC[C@@]3(C=O)[C@H]12 | 6.27 µg/mL (≈ 16.7 µM) | 18.3 µg/mL (≈ 48.6 µM) | 4.43 µg/mL (≈ 11.8 µM) | 24 µg/mL | 24 µg/mL | 4.96 µg/mL (≈ 13.2 µM) | 9 µg/mL | 4.5 µg/mL | CC100 [6]: 12 µg/mL; CC100 [13]: 12 µg/mL |
| CO[C@@H]1OC2OC(=O)[C@@H]3CC[C@@H]4[C@@]5(C)CCCC(C)(C)[C@@H]5CC[C@]14[C@H]23 (stereo partly drawn) |  |  |  |  |  |  | 120 µg/mL | 60 µg/mL |  |
| CC1(C)C(=O)CC[C@]2(C)[C@H]3CCc4cocc4[C@]3(C)CC[C@@H]12 |  |  |  | 40 µg/mL | 30 µg/mL |  | 28 µg/mL | inactive |  |
| C[C@]12C[C@@H](O)C(=O)[C@](C)(CO)[C@@H]1CC[C@@]1(C)c3cocc3CC[C@H]21 [ISOSPONGIADIOL] |  |  |  |  |  |  |  |  | IC50 [10]: 5 µg/mL (≈ 15 µM); IC50 [11]: 2 µg/mL (≈ 6.02 µM) |
| CC1(C)CCC[C@]2(C)[C@H]3CCc4cocc4[C@]3(C)CC[C@@H]12 |  |  |  |  |  |  | 120 µg/mL | 60 µg/mL |  |
| CC(=O)O[C@H]1C=C2C(=O)OC[C@@]2(O)[C@]2(C)[C@@H](OC(C)=O)C[C@H]3C(C)(C)CCC[C@]3(C)[C@@H]12 [DORISENONE A] |  |  |  |  |  |  |  |  | IC50 [14]: 0.22 µg/mL (≈ 0.506 µM); IC50 [15]: 0.21 µg/mL (≈ 0.483 µM) |
| C[C@]12CC(=O)[C@@H](O)[C@](C)(CO)[C@@H]1CC[C@@]1(C)c3cocc3CC[C@H]21 [SPONGIADIOL] |  |  |  |  |  |  |  |  | IC50 [10]: 0.5 µg/mL (≈ 1.5 µM); IC50 [11]: 0.25 µg/mL (≈ 0.752 µM) |
| CO[C@H]1CC[C@]2(C)[C@H]3CCc4cocc4[C@]3(C)CC[C@H]2[C@@H]1C | 13.6 µg/mL (≈ 44.9 µM) | 17.9 µg/mL (≈ 59.2 µM) | 10.4 µg/mL (≈ 34.5 µM) | 36 µg/mL | 36 µg/mL | 13.3 µg/mL (≈ 44 µM) | 28 µg/mL | 15 µg/mL | CC100 [6]: 18 µg/mL |
| CC1(C)CCC[C@]2(C)[C@H]3CC[C@]4(O)C(=O)OC[C@H]4[C@]3(C)CC[C@@H]12 |  |  |  |  |  |  | 56 µg/mL | 28 µg/mL |  |
| CC1(C)CCC[C@]2(C)[C@H]3CC[C@H]4C(=O)OC5O[C@@H](O)[C@]3(CC[C@@H]12)[C@H]54 (stereo partly drawn) [DENDRILLOL- 1] | 14.8 µg/mL (≈ 44.3 µM) | 18.9 µg/mL (≈ 56.4 µM) | 3.46 µg/mL (≈ 10.3 µM) | 13 µg/mL | 13 µg/mL | 5.1 µg/mL (≈ 15.2 µM) | 8 µg/mL | inactive |  |
